Source: patent publication US9796757B2, “Compositions and method for treating thrombosis” (The Board of Trustees of the University of Illinois, priority 2013, dated 2017)
No end group written: not given here. *: point of attachment. Myristoyl = CCCCCCCCCCCCCC(=O)*

What was measured:
HPAEC = assay: vWF secretion assay and ELISA in HPAEC; assay type: cell-based, human; settings: peptide 1 μM, 1 hour pre-incubation, ELISA (FIG. 2), listed as Myr-SBD peptide
Procedure: vWF secretion assay was as previously described (Lui-Roberts, et al. (2005) J. Cell Biol. 170:627-636). In brief, 48 hours after transfection, endothelial cells were serum-deprived for 4 hours, washed, and incubated with fresh serum-free medium in presence or absence of 25 nM thrombin, A23187 (a calcium ionophore), or culture medium alone (vehicle control). Cell culture media was collected at various time points after agonist stimulation and centrifuged for 10 minutes at 13,000×g to remove cell debris. Supernatants were assayed for vWF content by ELISA. Cells were lysed to determine total vWF secreted per 10^6 cells. The concentration of vWF was expressed as mIU/ml/10^6 cells by relating the absorbance at 450 nm to a vWF standard curve. […] To prevent potential differences in releasable vWF, the same batch of HUVEC was used for all experiments, and control and siRNA treated cells were assessed at equivalent cell densities.
The role of G protein signaling in basal vs. PAR1-stimulated vWF secretion from confluent, low passage, and serum-deprived HUVECs and HPAECs was subsequently determined. […]
It was determined whether Gα12 interaction with αSNAP plays an important role in both basal and evoked VWF secretion from endothelial cell WPBs in vitro and in vivo. […] The effect of Gα12 and Myr-SBD on vWF secretion was assessed as was mortality associated with CLP/sepsis in rodent models. […]

plasma vWF = plasma vWF after CLP or SHAM surgery in mice; assay type: in vivo; settings: 24 hours after SHAM or CLP surgery, i.v. 100 μl of 100 μM (~5 μM) at time of surgery, vs Myr-Scrambled peptide, n=3/group
Procedure: Mice were anaesthetized by ketamine/xylazine as above and ventilated according to conventional methods. […] Plasma was prepared from citrated blood samples via centrifugation at 3,000×g for 15 minutes at room temperature and stored at −80° C. until vWF measurement by ELISA. The anesthetized mouse was then euthanized for lung tissue collection as described below.
(§1) Mouse samples were collected and vWF level was measured by sandwich ELISA (Lu, et al. (2011) supra). One unit of vWF was defined as the amount present in 1 ml of mouse pooled normal plasma.
It was determined whether Gα12 interaction with αSNAP plays an important role in both basal and evoked VWF secretion from endothelial cell WPBs in vitro and in vivo. Myr-SBD peptide (1 μM; 1 hour pre-incubation) blocked both basal VWF secretion and that evoked by thrombin stimulation of HPAEC (FIG. 2). The effect of Gα12 and Myr-SBD on vWF secretion was assessed as was mortality associated with CLP/sepsis in rodent models. […] Importantly, reduced plasma vWF levels (FIG. 3B) were observed 24 hours after SHAM or CLP surgery in mice given 100 μl of 100 μM Myr-SBD (˜5 μM) as compared to mice treated with Myr-Scrambled peptide.

lung ECs = assay: ex vivo isolated buffer-perfused mouse lung vWF secretion (ELISA of perfusate)
Procedure: Anesthetized GNA12^−/−, GNA12^−/−/EC GNA13^−/−, GNAq^−/−, and GNAq^−/−/EC GNA11^−/− mice were instrumented with a tracheal tube, cannulated via pulmonary artery, and perfused with warmed Krebs buffer at a rate of 1 ml/min for 5 minutes to remove residual blood constituents followed by treatment for 20 minutes with 2 ml recirculating Krebs buffer to assess constitutive vWF secretion. […] Following lung perfusion, lungs were minced and snap-frozen in liquid nitrogen for subsequent determination of whole lung extract vWF levels.
as §1
To address the role of G protein α subunits in constitutive (basal, spontaneous) vs. PAR-1-mediated vWF secretion from endothelial cells, vWF was measured in the ex vivo isolated buffer-perfused mouse lung (IPML). Lung preparations were used to exclude platelets as a source of vWF and also hepatic stellate cells as contributors of proteases that cleave ultra large vWF strings (Lenting, et al. (2012) supra). Ventilated WT, Gα12^−/−, and EC-Gαq^−/−; Gα11^−/− mouse lungs were cannulated and perfused with warmed recirculating RPMI media via pulmonary artery and left atrial catheters in situ. To assess basal vWF secretion, precleared blood-free lungs were perfused for 15 minutes with […] of 37° C. recirculating RPMI media (approximately the same volume as the normal mouse blood volume). Samples of the recirculating buffer were collected at 5 minute intervals over a period of 30 minutes and vWF (mU/ml perfusate) was measured by ELISA.
To assess the mechanism of thrombin-induced vWF release from ECs via PAR-1 activation, the PAR-1-specific synthetic peptide Thr-Phe-Leu-Leu-Arg (SEQ ID NO:3) was used to stimulate lung ECs. […] The initial slope of the vWF secretion curve was used to estimate the rate of vWF release following addition of Thr-Phe-Leu-Leu-Arg (SEQ ID NO:3), which was approximately 25 mU/mL/min in WT mouse lungs. […] Under these same conditions, basal vWF secretion in the pulmonary circulation of EC-Gαq^−/−; Gα11^−/− lungs was not different from that observed in WT mice, although Thr-Phe-Leu-Leu-Arg (SEQ ID NO:3)-induced vWF release was reduced by approximately 40%. […] The presence of EC WPB vWF in en face descending aorta and paraffin-embedded lung sections was verified by immunostaining and confocal microscopy. WT, Gα12^−/−, and Gα11^−/− tissues stained positive for vWF consistent with there being equivalent vWF synthesis and storage in WPBs in WT, Gα12^−/−, and Gα11^−/− mice.

HUVEC = assay: vWF immunostaining / WPB quantification by confocal microscopy in HUVEC; assay type: cell-based, human
Procedure: Endothelial cells cultured on gelatin-coated glass bottom dishes were fixed with 4% paraformaldehyde, permeabilized with 0.1% TRITON X-100, blocked with 5% goat serum for 1 hour, and subsequently incubated with rabbit polyclonal antibody directed against vWF (0.5 μg/ml) or contral IgG overnight at 4° C. Coverslips were washed 3× with phosphate-buffered saline and incubated for 30 minutes at room temperature in the dark with ALEXAFLUOR 555 goat anti-mouse and ALEXAFLUOR 488-labeled goat anti-rabbit secondary antibody. Coverslips were washed with phosphate-buffered saline and embedded in mounting media (VECTASHIELD). Confocal microscopy was performed using a ZEISS LSM 510 Meta microscope (Carl Zeiss MicroImaging, Inc.) equipped with 488 nm and 543 nm excitation lasers and pinhole set to achieve 1 Airy unit.
Weibel-Palade Bodies (WPBs) were identified based on vWF immunofluorescence staining, size (approximately 3 μm long and 0.3 μm wide), and shape (elongated organelles). […] The number of WPBs per cell was counted (n=10-30) and the average fluorescence intensity per WPB/cell determined.
To distinguish whether the inhibitory effect of Gα12 depletion on vWF secretion is due to inhibition of vWF secretion as opposed to impaired vWF production or storage, vWF immunostaining and confocal microscopy of control siRNA and Gα12 siRNA-treated HUVECs was performed in presence or absence of thrombin stimulation.
To elucidate the role of Gα12 in WPBs exocytosis, HUVEC were transfected with constitutively-active GFP-tagged Gα12^Q229L mutant, GFP-tagged Gα12^WT, or GFP alone, and then confocal images of vWF immunostaining were quantified.
The role of Gα12/αSNAP interactions in regulation of vWF secretion was analyzed using a two-step experimental approach. First, a library of Gα12-substitution mutants (Meigs, et al. (2005) J. Biol. Chem. 280(18):18049-18055) was used, in which the primary sequence of Gα12 was replaced with the Asn-Ala-Ala-Ile-Arg-Ser (SEQ ID NO:5; NAAIRS cassette) to assess domain-specific in vitro binding of Myc-tagged Gα12^Q229L with or without ‘NAAIRS’ substitution of N-terminal amino acids 4-9 (ΔN4-9) or 10-15 (ΔN10-15) to GST-αSNAP. […] Secondly, to assess the role of Gα12 interaction with α-SNAP in vWF secretion, a GFP-tagged α-SNAP Binding Domain (aa 10-15) minigene (GFP-SBD) was constructed based on the identified Gα12•GST-αSNAP interaction.

[1] = tail-snip blood loss (primary hemostasis); assay type: in vivo; settings: EC-Gα13−/−; Gα12−/− mice; i.v. 2 μg/g BW
Procedure: Mice were anaesthetized using 100 mg/kg ketamine and 5 mg/kg xylazine. Once unresponsive to tail pinch, 3-5 mm of the end of the tail was removed with a scalpel, the tail was immersed in 0.9% saline solution (37° C.), and time required for bleeding to stop was recorded (n=10 male mice/group, age 8-12 weeks) according to established methods (Lu, et al. (2011) Cell Res. 21:530-545). If no cessation of bleeding occurred after 30 minutes, the tail was cauterized with a cautery pencil and 30 minutes was recorded as the bleeding time. Blood loss during the bleeding time experiments was expressed as the accumulated amount of hemoglobin (Hb) bled into the container with phosphate-buffer saline in which tails were immersed. Hb (mg Hb/mL saline) was analyzed over the period of the experiment, using Hemocue HB201+ (Hemocue; Cypress, Calif.). Mice were allowed to recover in a clean cage. […]
Using megakaryocyte-restricted-Gα12/13 double knockout mice, it has been observed that Gα13-dependent signaling in platelets is important for hemostasis and thrombosis (Moers, et al. (2003) Nat. Med. 9(11):1418-1422). However, the molecular mechanisms and functional significance of endothelial cell Gα12 and Gα13 in primary hemostasis were not assessed. […] Hb accumulation from the cut tail immersed in saline solution was measured every 5 minutes for 15 minutes. […]

Myr-Arg-Cys-Leu-Leu-Pro-Ala (Myristoyl-RCLLPA) [Myr-SBD]
basal VWF secretion (HPAEC): blocks
thrombin-evoked VWF secretion (HPAEC; thrombin stimulation): blocks
plasma vWF levels (plasma vWF): reduced

CCN1C(=O)C=CC1=O [NEM, N-Ethylmaleimide]
vWF secretion (lung ECs; 1 mM added to recirculating lung perfusion system for 1 minute): abolished

Thr-Phe-Leu-Leu-Arg (TFLLR) [Thr-Phe-Leu-Leu-Arg (SEQ ID NO:3)]
reduction of peptide-induced vWF release vs WT (lung ECs; EC-Gαq−/−, Gα11−/− mouse lungs): approximately 40%
rate of vWF secretion (lung ECs; Gα12−/− mouse lungs, 30 μM peptide in recirculating perfusate): 3 mU/mL/min
time to peak vWF level in perfusate (lung ECs; WT mice, 30 μM peptide, remained constant for up to 1 hour): 10 to 15 min
rate of vWF release (initial slope of vWF secretion curve) (lung ECs; WT mouse lungs, 30 μM peptide in recirculating perfusate): approximately 25 mU/mL/min

GFP-SBD: GFP-tagged α-SNAP Binding Domain (aa 10-15) minigene expressed in HUVEC (RCLLPA; not fully specified; also: GFP-tagged minigene (fusion))
thrombin-induced WPB exocytosis (HUVEC; GFP-SBD minigene expressed in HUVEC): inhibited
intracellular vWF staining following thrombin stimulation (HUVEC; GFP-SBD-expressing HUVECs, control GFP cells significantly reduced (FIG. 1)): remained unchanged

purified human plasma-derived vWF: purified human plasma-derived von Willebrand factor
hemostasis (tail-snip blood loss) [1]: corrected

thrombin
GFP-positive control cells showing reduced vWF positive WPBs (HUVEC; HUVEC transfected with GFP alone, 25 nM thrombin for 15 minutes): 80%
decrease in intracellular vWF staining (HUVEC; control siRNA HUVEC, thirty minutes after thrombin treatment): > 80%
